Reference: US9447023B2, “Curcumin and tetrahydrocurcumin derivatives” (Research Foundation of the City University of New York, priority 2006, dated 2016)

Tests used:
[1] = Molar extinction coefficient of curcumin analogs (UV-visible); type: physicochemical; conditions: in M-1 cm-1 (unit assumed)
Description: Each curcumin derivative is bioconjugated to create a biopolymer that can be used as an eco-friendly dye. For example, compounds 1b and 1d can be conveniently conjugated to the lysine residues of proteins, the azide and the alkyne derivatives can be attached to proteins via the ‘click’ bioconjugation reaction. Compounds 1c and 1e have the advantage that unlike most reactive groups which are used for bioconjugation, alkyne and azide groups are stable in aqueous media (Scheme 5). The absorbance and fluorescence properties of these dyes are similar to the parent molecule.
Reagent-grade solvents such as acetone and tetrahydrofuran were used without further purification. For High Performance Liquid Chromatography (HPLC), methylene chloride was used with Pure Solv™ solvent purification system. Curcumin was obtained from Acros-Organics. Copper acetate and sodium ascorbate were purchased from Sigma. Silica gel 60 F 254 plates for thin-layer chromatography (TLC) were purchased from Merck. Column chromatographic separations were carried out using silica gel (Fisher) with a particle size of 0.040-0.063 mm. Nuclear magnetic resonance (NMR) was recorded on Bruker Avance 600 (600 MHz) spectrometers. Mass spectra (ES-MS) were recorded on a LC/MS and Time Of Flight (TOF) mass spectrometer. U.V.-Visible spectra were recorded using a ChemStation Rev. A.10.01 from Agilent Technologies

[2] = unmodified curcumin, background statement; cited from earlier work
amyloid plaques = conditions: cited from earlier work
[3] = human subjects, doses as high as 8 g of curcumin per day; cited from earlier work
Oligodendroglioma cells = assay: Apoptosis of Oligodendroglioma cells (DAPI staining); type: cell-based; conditions: 50 micro molar
Protocol: The small molecule curcumin analogs including curcumin dimers, curcumin polymers and curcumin modified polymers, typical examples shown in Schemes 1-6 of the present invention can be used for the treatment of cancer. […] Oligodendroglioma cells were treated with 50 micro molar concentration of curcumin and asymmetric curcumin dimer stained with DAPPI presented.
Very limited cell death is seen in human fibroblasts, which serve as a benign control cell line. The percentage of apoptosis is lower at higher concentrations (100 μM and more) as compared to that at 20 μM and 50 μM for all the compounds including curcumin because at higher concentration curcumin and analogs of the invention cause HOG cell necrosis. This alternate pathway of cell killing has been established via DNA laddering studies.

Which “Molar Extinction Coeffecient” value [1] does the source give for `COc1cc(/C=C\C(=O)CC(=O)/C=C\c2ccc(OC(=O)CCCC(=O)NCCOCCOCCOCCOCCOCCOCCN=[N+]=[N-])c(OC)c2)ccc1O` [Compound 4, Mono-2-(2-(2-(2-(2-(2-(2-azidoethoxy)ethoxy)ethoxy)ethoxy)ethoxy)ethoxy)ethylcarbamoyl butanoate-Curcumin] here?
The value was 26764.

With `C#CCOc1ccc(C=CC(=O)CC(=O)C=Cc2ccc(O)c(OC)c2)cc1OC` [Compound 5, Mono-Propargyl Curcumin] as the compound, how does the “Molar Extinction Coeffecient” value [1] read?
Its value is 29510.

For `COc1cc(/C=C\C(=O)CC(=O)/C=C\c2ccc(O)c(OC)c2)ccc1O` [Curcumin, (1Z,6Z)-1,7-bis(4-hydroxy-3-methoxyphenyl)hepta-1,6-diene 3,5-dione], which “water and plasma solubility” value [2] is on record?
The value was “poor water and plasma solubility”.

And the “amyloid levels and plaque burden” value (amyloid plaques; fed to mice with advanced amyloid accumulation)?
Its value is “reduced amyloid levels and plaque burden”.

And the “blood-brain barrier crossing and plaque binding” value (amyloid plaques; injected, transgenic mouse model)?
Its value is “crosses the blood-brain barrier and binds amyloid plaques”.

And the “Molar Extinction Coeffecient” value [1]?
Its value is 50,000.

And the “average peak serum concentration” value [3]?
Its value is 652.5 ng/mL.

For “(2-(2-(2-(2-(2-(2-(2-(4-methylene)-1H-1,2,3-triazol-1-yl)ethoxy)ethoxy)ethoxy)ethoxy)ethoxy)ethoxy)ethylcarbamoyl butanoate curcumin dimer [Compound 7]”, which “apoptosis characterized by nuclear condensation (DAPI staining)” value (Oligodendroglioma cells) is on record?
The value was “Extensive apoptosis”.

What about the “induction of apoptosis relative to parent compound curcumin” value (Oligodendroglioma cells) of the same compound?
The value was “superior in inducing apoptosis”.
